Experimental data taken from ChEMBL document CHEMBL1145076, “Synthesis and activity of new aryl- and heteroaryl-substituted pyrazole inhibitors of the transforming growth factor-beta type I receptor kinase domain” (J Med Chem, 2003).

How the values were obtained:
TGF-beta receptor type-1 [1] = molecular target: T1, TGF-beta receptor type-1 (Homo sapiens, UniProt P36897); assay: In vitro inhibition of transforming growth factor- beta dependent luciferase production in mink lung cells (p3TP Lux); format: functional, cell-based
T1 sequence (P36897 whole entry): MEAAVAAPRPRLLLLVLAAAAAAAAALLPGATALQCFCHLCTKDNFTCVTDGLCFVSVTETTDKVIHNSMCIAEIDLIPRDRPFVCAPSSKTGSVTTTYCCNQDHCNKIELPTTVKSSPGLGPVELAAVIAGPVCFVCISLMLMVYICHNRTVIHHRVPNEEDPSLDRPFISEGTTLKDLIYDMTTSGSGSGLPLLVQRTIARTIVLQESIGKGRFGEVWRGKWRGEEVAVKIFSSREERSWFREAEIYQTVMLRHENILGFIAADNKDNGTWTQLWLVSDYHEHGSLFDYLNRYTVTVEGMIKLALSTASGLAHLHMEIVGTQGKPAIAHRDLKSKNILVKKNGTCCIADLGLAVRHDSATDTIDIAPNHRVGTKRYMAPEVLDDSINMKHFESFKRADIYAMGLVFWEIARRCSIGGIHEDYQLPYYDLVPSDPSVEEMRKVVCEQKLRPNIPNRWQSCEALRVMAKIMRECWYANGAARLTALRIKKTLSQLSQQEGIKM

[2] = molecular target: Mitogen-activated protein kinase 14 (Homo sapiens, UniProt Q16539); assay: In vitro inhibitory activity against Mitogen-activated protein kinase p38
Sequence of Mitogen-activated protein kinase 14 (Q16539 whole entry): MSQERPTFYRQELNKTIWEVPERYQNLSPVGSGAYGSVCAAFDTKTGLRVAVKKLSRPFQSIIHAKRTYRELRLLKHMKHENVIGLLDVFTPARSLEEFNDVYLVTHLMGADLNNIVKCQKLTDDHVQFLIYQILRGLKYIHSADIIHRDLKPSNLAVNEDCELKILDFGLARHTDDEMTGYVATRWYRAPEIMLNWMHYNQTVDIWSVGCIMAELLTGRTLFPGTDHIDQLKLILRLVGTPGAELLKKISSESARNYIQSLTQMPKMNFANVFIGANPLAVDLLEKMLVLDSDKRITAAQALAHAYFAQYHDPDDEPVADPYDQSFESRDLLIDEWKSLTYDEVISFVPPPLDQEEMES

TGF-beta receptor type-1 [3] = molecular target: T1, TGF-beta receptor type-1; assay: In vitro inhibition of transforming growth factor- beta dependent luciferase growth in mouse fibroblasts (NIH 3T3); format: functional; settings: target entry is the homologue from another species
TGF-beta receptor type-1 [4] = molecular target: T1, TGF-beta receptor type-1; assay: In vitro inhibitory activity against human Transforming growth factor beta-1 receptor kinase (TGF-beta RIK)

IC50 (TGF-beta receptor type-1 [1]) [nM] | IC50 [2] [nM] | IC50 (TGF-beta receptor type-1 [3]) [nM] | IC50 (TGF-beta receptor type-1 [4]) [nM] | Compound
551 | > 20000 | 421 | 57 | Cc1cccc(-c2[nH]ncc2-c2ccc(Cl)cc2)n1
1660 | 400 | 2810 | 353 | c1csc(-c2n[nH]cc2-c2ccnc3ccccc23)c1
139 | > 20000 | 41 | 70 | Cc1cccc(-c2n[nH]cc2-c2ccc(F)cc2)n1
44 | 560 | 32 | 31 | Cc1cccc(-c2n[nH]cc2-c2ccc(O)cc2)n1
788 | > 20000 | 683 | 151 | Cc1cccc(-c2[nH]ncc2-c2ccc(F)c(F)c2)n1
3530 | 6800 | 2590 | 275 | Fc1ccc(-c2c[nH]nc2-c2ccccn2)cc1
> 9000 | > 20000 | 9540 | 3990 | c1ccc(-c2c[nH]nc2-c2ccccn2)cc1
3370 | > 20000 | 2160 | 543 | Cc1cccc(-c2n[nH]cc2-c2ccccc2)n1
94 | 1300 | 76 | 91 | Fc1ccc(-c2n[nH]cc2-c2ccnc3ccccc23)nc1
355 | 6.8 | 524 | 217 | FC(F)(F)c1cccc(-c2n[nH]cc2-c2ccnc3ccccc23)c1
94 | 280 | 538 | 203 | c1ccc(-c2n[nH]c(C3CC3)c2-c2ccnc3ccccc23)nc1
47 | 5400 | 61 | 44 | COc1ccc(-c2cn(C)nc2-c2cccc(C)n2)cc1
2.9 | 78 | 7.1 | 34 | Cc1cccc(-c2n[nH]cc2-c2ccnc3ccccc23)n1
> 10000 | 2300 | 4670 | 1760 | Clc1ccc(-c2n[nH]cc2-c2ccnc3ccccc23)nc1
1200 | 25 | 2920 | 382 | c1ccc(-c2n[nH]cc2-c2ccnc3ccccc23)cc1
399 | 510 | 1340 | 369 | c1ccc(Cn2cc(-c3ccnc4ccccc34)c(-c3ccccn3)n2)cc1
24 | 250 | 148 | 82 | Cc1cccc(-c2n[nH]c(C)c2-c2ccnc3ccccc23)n1

Compound | IC50 (TGF-beta receptor type-1 [1]) [nM] | IC50 [2] [nM] | IC50 (TGF-beta receptor type-1 [3]) [nM] | IC50 (TGF-beta receptor type-1 [4]) [nM]
c1ccc(-c2n[nH]cc2-c2ccnc3ccccc23)nc1 |  | 740 |  | 
c1ccc(-c2c[nH]nc2-c2ccnc3ccccc23)nc1 | 683 | 7700 | 1680 | 150
Brc1cccc(-c2n[nH]cc2-c2ccnc3ccccc23)n1 | 2.9 | 110 | 1.2 | 31
